Measurements published in the supplement of paper PMC10307832.

Columns and labels:
Assay in all cases: relative viability (nuclei count vs DMSO), 5 days (fraction); higher = more cells survive
[1] = compound: CC(O)(CS(=O)(=O)c1ccc(F)cc1)C(=O)Nc1ccc(C#N)c(C(F)(F)F)c1 [Bicalutamide] + Cc1cc(Nc2cc(N3CCN(C)CC3)nc(Sc3ccc(NC(=O)C4CC4)cc3)n2)n[nH]1 [Tozasertib] (partner 0.1 µM)
Outline: (§1)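 A single step with final 0.05% Triton X-100, 1% formaldehyde and 1 ug/ml Hoechst fixed the cells and stained nuclei 5 days after treatment. Lung cancer cell lines in 1536-well plates had been treated by pin tool the day after seeding with one drug alone or a fixed anchor-drug dose plus five library-drug doses (not always all listed) in √10 steps, and nuclei were counted on 4× images. Relative viability is the ratio of nuclei in treated wells to nuclei in vehicle wells, taken as the median of duplicate plates.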

[2] = compound: C(C(=O)C(=O)O)Br [Bromopyruvate] + CS(=O)(=O)CCNCc1ccc(-c2ccc3ncnc(Nc4ccc(OCc5cccc(F)c5)c(Cl)c4)c3c2)o1 [Lapatinib] (partner 2 µM)
Outline: as §1

[3] = compound: CC(O)(CS(=O)(=O)c1ccc(F)cc1)C(=O)Nc1ccc(C#N)c(C(F)(F)F)c1 [Bicalutamide] + Cc1nc(NC(=O)N2CCC[C@H]2C(N)=O)sc1-c1ccnc(C(C)(C)C(F)(F)F)c1 [Alpelisib] (partner 2 µM)
Outline: as §1

[4] = compound: CC(O)(CS(=O)(=O)c1ccc(F)cc1)C(=O)Nc1ccc(C#N)c(C(F)(F)F)c1 [Bicalutamide] + O=C(c1cc(Cc2n[nH]c(=O)c3ccccc23)ccc1F)N1CCN(C(=O)C2CC2)CC1 [Olaparib] (partner 8 µM)
Outline: as §1

Work on HCC-827 yielded a relative viability ([1]; first compound 0.08 µM) of 0.403, a relative viability ([1]; first compound 0.253 µM) of 0.341 and a relative viability ([1]; first compound 0.8 µM) of 0.402. For the same cell line, the relative viability ([1]; first compound 2.53 µM) was 0.402, the relative viability ([2]; first compound 1 µM) was 0.205 and the relative viability ([2]; first compound 3.162 µM) was 0.191. For the same cell line, the relative viability ([2]; first compound 10 µM) was 0.167, the relative viability ([2]; first compound 31.62 µM) was 0.193 and the relative viability ([2]; first compound 100 µM) was 0.214. For the same cell line, the relative viability ([3]; first compound 0.08 µM) was 0.965, the relative viability ([3]; first compound 0.253 µM) was 0.79 and the relative viability ([3]; first compound 0.8 µM) was 1.03. For the same cell line, the relative viability ([3]; first compound 2.53 µM) was 0.958, the relative viability ([4]; first compound 0.08 µM) was 0.63 and the relative viability ([4]; first compound 0.253 µM) was 0.548. For the same cell line, the relative viability ([4]; first compound 0.8 µM) was 0.704 and the relative viability ([4]; first compound 2.53 µM) was 0.6.

HOP-62 gave a relative viability ([1]; first compound 0.08 µM) of 0.419, a relative viability ([1]; first compound 0.253 µM) of 0.402 and a relative viability ([1]; first compound 0.8 µM) of 0.425. It also gave a relative viability ([1]; first compound 2.53 µM) of 0.34, a relative viability ([2]; first compound 1 µM) of 1.04 and a relative viability ([2]; first compound 3.162 µM) of 1.02. It also gave a relative viability ([2]; first compound 31.62 µM) of 1.02, a relative viability ([2]; first compound 100 µM) of 1.02 and a relative viability ([3]; first compound 0.08 µM) of 1.31. It also gave a relative viability ([3]; first compound 0.253 µM) of 0.959, a relative viability ([3]; first compound 0.8 µM) of 1.19 and a relative viability ([3]; first compound 2.53 µM) of 1.12. It also gave a relative viability ([4]; first compound 0.08 µM) of 0.736, a relative viability ([4]; first compound 0.253 µM) of 0.38 and a relative viability ([4]; first compound 0.8 µM) of 0.388. It also gave a relative viability ([4]; first compound 2.53 µM) of 0.349.

For IA-LM, the relative viability ([2]; first compound 1 µM) was 0.772, the relative viability ([2]; first compound 3.162 µM) was 0.86 and the relative viability ([2]; first compound 10 µM) was 0.527. For the same cell line, the relative viability ([2]; first compound 31.62 µM) was 0.816, the relative viability ([2]; first compound 100 µM) was 0.617 and the relative viability ([3]; first compound 0.08 µM) was 0.801. It also gave a relative viability ([3]; first compound 0.253 µM) of 0.793, a relative viability ([3]; first compound 0.8 µM) of 0.964 and a relative viability ([3]; first compound 2.53 µM) of 0.782. It also gave a relative viability ([4]; first compound 0.08 µM) of 0.959, a relative viability ([4]; first compound 0.253 µM) of 0.738 and a relative viability ([4]; first compound 0.8 µM) of 1.08. The relative viability ([4]; first compound 2.53 µM) was 0.943.

LC-2-ad gave a relative viability ([1]; first compound 0.08 µM) of 0.465, a relative viability ([1]; first compound 0.253 µM) of 0.429 and a relative viability ([1]; first compound 0.8 µM) of 0.552. It also gave a relative viability ([1]; first compound 2.53 µM) of 0.505, a relative viability ([2]; first compound 1 µM) of 0.977 and a relative viability ([2]; first compound 3.162 µM) of 0.982. It also gave a relative viability ([2]; first compound 10 µM) of 0.933, a relative viability ([2]; first compound 31.62 µM) of 0.921 and a relative viability ([2]; first compound 100 µM) of 0.971. For the same cell line, the relative viability ([3]; first compound 0.08 µM) was 0.99, the relative viability ([3]; first compound 0.253 µM) was 0.921 and the relative viability ([3]; first compound 0.8 µM) was 0.852. The relative viability ([3]; first compound 2.53 µM) was 0.894, the relative viability ([4]; first compound 0.08 µM) was 0.758 and the relative viability ([4]; first compound 0.253 µM) was 0.713. For the same cell line, the relative viability ([4]; first compound 0.8 µM) was 0.683 and the relative viability ([4]; first compound 2.53 µM) was 0.697.

Cell Line LCLC-97TM1 has a relative viability ([1]; first compound 0.08 µM) of 0.212, a relative viability ([1]; first compound 0.253 µM) of 0.186 and a relative viability ([1]; first compound 0.8 µM) of 0.296. The relative viability ([1]; first compound 2.53 µM) was 0.231, the relative viability ([2]; first compound 10 µM) was 0.864 and the relative viability ([2]; first compound 31.62 µM) was 1.28. It also gave a relative viability ([2]; first compound 100 µM) of 0.82, a relative viability ([3]; first compound 0.08 µM) of 0.254 and a relative viability ([3]; first compound 0.253 µM) of 0.231. For the same cell line, the relative viability ([3]; first compound 0.8 µM) was 0.286, the relative viability ([3]; first compound 2.53 µM) was 0.226 and the relative viability ([4]; first compound 0.08 µM) was 0.356. It also gave a relative viability ([4]; first compound 0.253 µM) of 0.363, a relative viability ([4]; first compound 0.8 µM) of 0.434 and a relative viability ([4]; first compound 2.53 µM) of 0.507.

Work on LCLC-103H yielded a relative viability ([1]; first compound 0.08 µM) of 0.546, a relative viability ([1]; first compound 0.253 µM) of 0.412 and a relative viability ([1]; first compound 0.8 µM) of 0.468. The relative viability ([1]; first compound 2.53 µM) was 0.411, the relative viability ([3]; first compound 0.08 µM) was 1.04 and the relative viability ([3]; first compound 0.253 µM) was 0.907. For the same cell line, the relative viability ([3]; first compound 0.8 µM) was 1.1, the relative viability ([3]; first compound 2.53 µM) was 1.02 and the relative viability ([4]; first compound 0.08 µM) was 0.775. It also gave a relative viability ([4]; first compound 0.253 µM) of 0.785, a relative viability ([4]; first compound 0.8 µM) of 0.835 and a relative viability ([4]; first compound 2.53 µM) of 0.75.

LK-2 showed a relative viability ([1]; first compound 0.08 µM) of 0.19, a relative viability ([1]; first compound 0.253 µM) of 0.178 and a relative viability ([1]; first compound 0.8 µM) of 0.152. The relative viability ([1]; first compound 2.53 µM) was 0.179, the relative viability ([2]; first compound 1 µM) was 0.936 and the relative viability ([2]; first compound 3.162 µM) was 0.88. It also gave a relative viability ([2]; first compound 10 µM) of 0.871, a relative viability ([2]; first compound 31.62 µM) of 0.967 and a relative viability ([2]; first compound 100 µM) of 0.826. For the same cell line, the relative viability ([3]; first compound 0.08 µM) was 1.21, the relative viability ([3]; first compound 0.253 µM) was 0.878 and the relative viability ([3]; first compound 0.8 µM) was 1.44. It also gave a relative viability ([3]; first compound 2.53 µM) of 1.16, a relative viability ([4]; first compound 0.08 µM) of 0.629 and a relative viability ([4]; first compound 0.253 µM) of 0.524. The relative viability ([4]; first compound 0.8 µM) was 1.12 and the relative viability ([4]; first compound 2.53 µM) was 0.621.

Work on LOU-NH91 yielded a relative viability ([1]; first compound 0.08 µM) of 0.696, a relative viability ([1]; first compound 0.253 µM) of 0.516 and a relative viability ([1]; first compound 0.8 µM) of 0.798. The relative viability ([1]; first compound 2.53 µM) was 0.662, the relative viability ([2]; first compound 1 µM) was 0.818 and the relative viability ([2]; first compound 3.162 µM) was 0.706. For the same cell line, the relative viability ([2]; first compound 10 µM) was 0.735, the relative viability ([2]; first compound 31.62 µM) was 0.815 and the relative viability ([2]; first compound 100 µM) was 0.824. It also gave a relative viability ([3]; first compound 0.08 µM) of 0.698, a relative viability ([3]; first compound 0.253 µM) of 0.608 and a relative viability ([3]; first compound 0.8 µM) of 0.828. The relative viability ([3]; first compound 2.53 µM) was 0.745, the relative viability ([4]; first compound 0.08 µM) was 0.899 and the relative viability ([4]; first compound 0.253 µM) was 0.847. It also gave a relative viability ([4]; first compound 0.8 µM) of 0.976 and a relative viability ([4]; first compound 2.53 µM) of 0.955.

Cell Line LU99A has a relative viability ([1]; first compound 0.08 µM) of 0.279, a relative viability ([1]; first compound 0.253 µM) of 0.238 and a relative viability ([1]; first compound 0.8 µM) of 0.297. It also gave a relative viability ([1]; first compound 2.53 µM) of 0.226, a relative viability ([2]; first compound 1 µM) of 1.05 and a relative viability ([2]; first compound 3.162 µM) of 0.898. The relative viability ([2]; first compound 10 µM) was 1.12, the relative viability ([2]; first compound 31.62 µM) was 0.992 and the relative viability ([2]; first compound 100 µM) was 1.09. For the same cell line, the relative viability ([3]; first compound 0.08 µM) was 0.625, the relative viability ([3]; first compound 0.253 µM) was 0.447 and the relative viability ([3]; first compound 0.8 µM) was 0.603. For the same cell line, the relative viability ([3]; first compound 2.53 µM) was 0.402, the relative viability ([4]; first compound 0.08 µM) was 0.268 and the relative viability ([4]; first compound 0.253 µM) was 0.225. It also gave a relative viability ([4]; first compound 0.8 µM) of 0.259 and a relative viability ([4]; first compound 2.53 µM) of 0.248.

In the case of LXF-289, the relative viability ([1]; first compound 0.08 µM) is reported as 0.206, the relative viability ([1]; first compound 0.253 µM) is reported as 0.182 and the relative viability ([1]; first compound 0.8 µM) is reported as 0.198. It also gave a relative viability ([1]; first compound 2.53 µM) of 0.157, a relative viability ([2]; first compound 1 µM) of 0.967 and a relative viability ([2]; first compound 3.162 µM) of 0.879. For the same cell line, the relative viability ([2]; first compound 10 µM) was 0.935, the relative viability ([2]; first compound 31.62 µM) was 0.914 and the relative viability ([2]; first compound 100 µM) was 0.959. The relative viability ([3]; first compound 0.08 µM) was 1.04, the relative viability ([3]; first compound 0.253 µM) was 0.952 and the relative viability ([3]; first compound 0.8 µM) was 1.08. It also gave a relative viability ([3]; first compound 2.53 µM) of 1.03, a relative viability ([4]; first compound 0.08 µM) of 1.04 and a relative viability ([4]; first compound 0.253 µM) of 1.08. For the same cell line, the relative viability ([4]; first compound 0.8 µM) was 1.18 and the relative viability ([4]; first compound 2.53 µM) was 1.01.
